The test system of the experiment is glycogen synthase. The experiment in a line: Glycogen Synthase (GS) Assay. It is filed as biochemical. The settings on record: coupled pyruvate kinase/lactate dehydrogenase assay, absorbance at 340 nm; for EC50: compound concentration needed to give 50% maximum activation; for GS SC200: compound concentration needed to stimulate 200% of the enzyme activity. As for the experimental part: The following tests were carried out in order to determine the activity of the compounds of formula (I).
Twelve μL per well of substrate solution containing glycogen (4.32 mg/ml), 2.67 mM UDP-glucose, 21.6 mM phospho(enol)pyruvate and 2.7 mM NADH in 30 mM glycylglycine, pH 7.3 buffer was added into a polystyrene 384-well assay plate (BD Biosciences).
Compound solutions (8 μL/well) at various concentrations (0-300 μM) were added to the assay plate (columns 5-24). Compound solution contains 30 mM glycylglycine, pH 7.3, 40 mM KCl, 20 mM MgCl2, 9.2% DMSO, with (columns 15-24) or without (columns 5-14) 20 mM glucose 6-phosphate.
Enzyme solution (12 μL/well) containing glycogen synthase (16.88 μg/ml), pyruvate kinase (0.27 mg/ml), lactate dehydrogenase (0.27 mg/ml) in 50 mM Tris-HCl, pH 8.0, 27 mM DTT and bovine serum albumin (BSA, 0.2 mg/ml) was added to the assay plate (columns 3-24). As a blank control, enzyme solution without glycogen synthase was added into the top half wells of columns 1-2. To the bottom half wells of columns 1-2 were added a known activator, glucose 6-phosphate (at final concentration 5 mM) in addition to the enzyme solution. The reaction mixture was incubated at room temperature. The assay plate was then read for absorbance at 340 nm on an Envision reader every 3 minutes up to a total of 15 minutes.
The enzyme activity (with or without compound) was calculated by the reaction rate and represented by the optical density change (δOD) per minute. Percent stimulation of glycogen synthase activity by a compound at various concentrations was calculated by the following formula: […]
Where Rs is the reaction rate of the enzyme in the presence of compound and Rt is the reaction rate of the enzyme in the absence of compound.
SC200 is defined as the compound concentration that is needed to stimulate 200% of the enzyme activity. EC50 is defined as the compound concentration that is needed to give 50% maximum activation.
Compounds from Examples 1 through Example 64 were assayed according to assay procedures described above and the result is listed in Table 1 below: […]

These results are taken from patent US20110136792A1, “NOVEL CARBOXYLIC ACID ANALOGS AS GLYCOGEN SYNTHASE ACTIVATORS” (priority 2009, published 2011).

In the case of `COc1cc(F)c(F)cc1-c1ccc(OCc2cccc(CN(CC(=O)O)S(=O)(=O)c3ccccc3)c2)cc1` [Example 8, {Benzenesulfonyl-[3-(4′,5′-difluoro-2′-methoxy-biphenyl-4-yloxymethyl)-benzyl]-amino}-acetic acid], the EC50 is 910 nM and the “GS SC200” value came out at 0.17 µM.
Turning to `COc1cc(F)c(F)cc1-c1ccc(OCc2cccc(CN(CC(=O)O)S(=O)(=O)C3CC3)c2)cc1` [Example 9, {Cyclopropanesulfonyl-[3-(4′,5′-difluoro-2′-methoxy-biphenyl-4-yloxymethyl)-benzyl]-amino}-acetic acid], the midpoint of the response, the EC50, lay at 520 nM and the “GS SC200” value turned out to be 0.06 µM.
The matching figures for `COc1cc(F)c(F)cc1-c1ccc(OCc2cccc(CN(CC(=O)O)S(C)(=O)=O)c2)cc1` [Example 10, {[3-(4′,5′-Difluoro-2′-methoxy-biphenyl-4-yloxymethyl)-benzyl]-methanesulfonyl-amino}-acetic acid]: 290 nM and 0.03 µM.
Consider `CC(C)(C)C(=O)N(CC(=O)O)Cc1cccc(COc2ccc(-c3ccc(F)cc3F)cc2)c1` [Example 11, [[3-(2′,4′-Difluoro-biphenyl-4-yloxymethyl)-benzyl]-(2,2-dimethyl-propionyl)-amino]-acetic acid], for which the concentration giving a half-maximal response (EC50) was 3670 nM and the “GS SC200” value amounted to 0.97 µM.
Turning to `O=C(O)CN(Cc1cccc(COc2ccc(-c3ccc(F)cc3F)cc2)c1)C(=O)C1CC1` [Example 12, {Cyclopropanecarbonyl-[3-(2′,4′-difluoro-biphenyl-4-yloxymethyl)-benzyl]-amino}-acetic acid], the EC50 is 4310 nM and the “GS SC200” value was determined as 0.75 µM.
On to `O=C(O)CN(Cc1cccc(COc2ccc(-c3ccc(F)cc3F)cc2)c1)C(=O)N1CCOCC1` [Example 13, [[3-(2′,4′-Difluoro-biphenyl-4-yloxymethyl)-benzyl]-(morpholine-4-carbonyl)-amino]-acetic acid], for which the EC50 turned out to be 930 nM and the “GS SC200” value amounted to 0.10 µM.
Turning to `Cn1ccnc1C(=O)N(CC(=O)O)Cc1cccc(COc2ccc(-c3ccc(F)cc3F)cc2)c1` [Example 14, [[3-(2′,4′-Difluoro-biphenyl-4-yloxymethyl)-benzyl]-(1-methyl-imidazole-2-carbonyl)-amino]-acetic acid], the concentration giving a half-maximal response (EC50) came to 1310 nM and the “GS SC200” value was determined as 0.15 µM.
As to `O=C(O)CN(Cc1cccc(COc2ccc(-c3ccc(F)cc3F)cc2)c1)C(=O)c1cccnc1` [Example 15, [[3-(2′,4′-Difluoro-biphenyl-4-yloxymethyl)-benzyl]-(pyridine-3-carbonyl)-amino]-acetic acid], the response was half-maximal at 1430 nM (EC50) and the “GS SC200” value came out at 0.15 µM.
The matching figures for `O=C(O)CN(Cc1cccc(COc2ccc(-c3ccc(F)cc3F)cc2)c1)C(=O)c1ccccn1` [Example 16, [[3-(2′,4′-Difluoro-biphenyl-4-yloxymethyl)-benzyl]-(pyridine-2-carbonyl)-amino]-acetic acid]: 1540 nM and 0.43 µM.
The matching figures for `COCC(C)C(=O)N(CC(=O)O)Cc1cccc(COc2ccc(-c3ccc(F)cc3F)cc2)c1` (centres unmarked) [Example 17, [[3-(2′,4′-Difluoro-biphenyl-4-yloxymethyl)-benzyl]-(3-methoxy-2-methyl-propionyl)-amino]-acetic acid]: 1530 nM and 0.36 µM.
As to `CCS(=O)(=O)N(CC(=O)O)Cc1cccc(COc2ccc(-c3cc(F)c(F)cc3F)cc2)c1` [Example 18, {Ethanesulfonyl-[3-(2′,4′,5′-trifluoro-biphenyl-4-yloxymethyl)-benzyl]-amino}-acetic acid], the EC50 was determined as 160 nM and the “GS SC200” value amounted to 0.07 µM.
Regarding `COC(=O)N(CC(=O)O)Cc1cccc(COc2ccc(-c3cc(F)c(F)cc3OC)cc2)c1` [Example 19, {[3-(4′,5′-Difluoro-2′-methoxy-biphenyl-4-yloxymethyl)-benzyl]-methoxycarbonyl-amino}-acetic acid], the EC50 was determined as 1820 nM and the “GS SC200” value was 0.42 µM.
The corresponding values for `CCOC(=O)N(CC(=O)O)Cc1cccc(COc2ccc(-c3cc(F)c(F)cc3OC)cc2)c1` [Example 20, {[3-(4′,5′-Difluoro-2′-methoxy-biphenyl-4-yloxymethyl)-benzyl]-ethoxycarbonyl-amino}-acetic acid] are 5240 nM and 0.50 µM.
As to `COc1cc(F)c(F)cc1-c1ccc(OCc2cccc(CN(CC(=O)O)C(C)=O)c2)cc1` [Example 21, {Acetyl-[3-(4′,5′-difluoro-2′-methoxy-biphenyl-4-yloxymethyl)-benzyl]-amino}-acetic acid], the EC50 is 430 nM and the “GS SC200” value turned out to be 0.16 µM.
As to `COc1cc(F)c(F)cc1-c1ccc(OCc2cccc(CN(CC(=O)O)C(=O)C3CC3)c2)cc1` [Example 22, {Cyclopropanecarbonyl-[3-(4′,5′-difluoro-2′-methoxy-biphenyl-4-yloxymethyl)-benzyl]-amino}-acetic acid], the EC50 was 260 nM and the “GS SC200” value came out at 0.03 µM.
As for `CCC(=O)N(CC(=O)O)Cc1cccc(COc2ccc(-c3cc(F)c(F)cc3OC)cc2)c1` [Example 23, {[3-(4′,5′-Difluoro-2′-methoxy-biphenyl-4-yloxymethyl)-benzyl]-propionyl-amino}-acetic acid], the response was half-maximal at 370 nM (EC50) and the “GS SC200” value is 0.10 µM.
The corresponding values for `COc1cc(F)c(F)cc1-c1ccc(OCc2cccc(CN(CC(=O)O)C(=O)CC3CC3)c2)cc1` [Example 24, {(2-Cyclopropyl-acetyl)-[3-(4′,5′-difluoro-2′-methoxy-biphenyl-4-yloxymethyl)-benzyl]-amino}-acetic acid] are 730 nM and 0.12 µM.
As for `COc1cc(F)c(F)cc1-c1ccc(OCc2cccc(CN(CC(=O)O)C(=O)[C@@H]3CCCO3)c2)cc1` [Example 25, [[3-(4′,5′-Difluoro-2′-methoxy-biphenyl-4-yloxymethyl)-benzyl]-((S)-tetrahydro-furan-2-carbonyl)-amino]-acetic acid], the EC50 was 410 nM and the “GS SC200” value stood at 0.07 µM.
The corresponding values for `COCCC(=O)N(CC(=O)O)Cc1cccc(COc2ccc(-c3cc(F)c(F)cc3OC)cc2)c1` [Example 26, [[3-(4′,5′-Difluoro-2′-methoxy-biphenyl-4-yloxymethyl)-benzyl]-(3-methoxy-propionyl)-amino]-acetic acid] are 450 nM and 0.05 µM.
In the case of `COc1cc(F)c(F)cc1-c1ccc(OCc2cccc(CN(CC(=O)O)C(=O)c3cscn3)c2)cc1` [Example 27, [[3-(4′,5′-Difluoro-2′-methoxy-biphenyl-4-yloxymethyl)-benzyl]-(thiazole-4-carbonyl)-amino]-acetic acid], the EC50 came out at 520 nM and the “GS SC200” value came to 0.08 µM.
In the case of `COCC(=O)N(CC(=O)O)Cc1cccc(COc2ccc(-c3cc(F)c(F)cc3OC)cc2)c1` [Example 28, [[3-(4′,5′-Difluoro-2′-methoxy-biphenyl-4-yloxymethyl)-benzyl]-(2-methoxy-acetyl)-amino]-acetic acid], the EC50 was 410 nM and the “GS SC200” value came out at 0.06 µM.
Consider `COc1cc(F)c(F)cc1-c1ccc(OCc2cccc(CN(CC(=O)O)C(=O)c3cn(C)cn3)c2)cc1` [Example 29, [[3-(4′,5′-Difluoro-2′-methoxy-biphenyl-4-yloxymethyl)-benzyl]-(1-methyl-1H-imidazole-4-carbonyl)-amino]-acetic acid], for which the EC50 turned out to be 340 nM and the “GS SC200” value came to 0.01 µM.
Consider `COc1cc(F)c(F)cc1-c1ccc(OCc2cccc(CN(CC(=O)O)C(=O)c3cccnc3)c2)cc1` [Example 30, [[3-(4′,5′-difluoro-2′-methoxy-biphenyl-4-yloxymethyl)-benzyl]-(pyridine-3-carbonyl)-amino]-acetic acid], for which a half-maximal response (EC50) required 470 nM and the “GS SC200” value worked out at 0.04 µM.
Turning to `COCC(C)C(=O)N(CC(=O)O)Cc1cccc(COc2ccc(-c3cc(F)c(F)cc3OC)cc2)c1` (centres unmarked) [Example 31], a half-maximal effect (EC50) was put at 480 nM and the “GS SC200” value stood at 0.07 µM.
For the compound `COc1cc(F)c(F)cc1-c1ccc(OCc2cccc(CN(CC(=O)O)C(=O)C3CCN(C)CC3)c2)cc1` [Example 32, [[3-(4′,5′-Difluoro-2′-methoxy-biphenyl-4-yloxymethyl)-benzyl]-(1-methyl-piperidine-4-carbonyl)-amino]-acetic acid], the EC50 turned out to be 610 nM and the “GS SC200” value is 0.07 µM.
